{"source": "patent US12370255B2", "about": "“Peptide-based vaccines, methods of manufacturing, and uses thereof for inducing an immune response” (Barinthus Biotherapeutics North America, Inc., priority 2017, dated 2025)", "key": {"[1]": {"system": "T cells", "experiment": "T cell responses in vivo induced by peptide antigen conjugates", "conditions": "immunogenic compositions of peptide antigen conjugates", "from_the_text": "FIG. 37 discloses SEQ ID NOS 580-585, respectively, in order of appearance.\nFIG. 38 discloses SEQ ID NOS 586-602, respectively, in order of appearance.\nFIG. 39 discloses SEQ ID NOS 603-605 and 605, respectively, in order of appearance.\nFIG. 40 discloses SEQ ID NOS 606-610, respectively, in order of appearance.\nFIG. 41 discloses SEQ ID NOS 603-605, 103 and 611, respectively, in order of appearance.\nFIG. 42 discloses SEQ ID NO: 104.\nFIG. 45 discloses SEQ ID NOS 619, 620, 619, 621, 180 and 622, respectively, in order of appearance."}, "[2]": {"system": "CD8 T cells", "experiment": "antigen-specific CD8 T cell responses (% IFNg+ of total CD8 T cells) from whole blood of immunized mice", "format": "in vivo", "conditions": "native LP neoantigen admixed with pICLC; immunized days 0 and 14, day 28", "excerpt": "Mice (N=5 per group) were immunized with different immunogenic compositions comprising peptide antigens (A) based on either the synthetic long peptide (LP, sometimes referred to as “SLP”) or the minimal CD8 T cell epitope (Min, sometimes referred to as ME) of the antigen Irgq derived from the MC38 tumor cell line either as the peptide antigen (A) alone admixed with the TLR-7/8a adjuvant; as the peptide antigen (A) linked to a hydrophobic molecule (H), W3, and admixed with the TLR-7/8a adjuvant; or as the peptide antigen (A) linked to a hydrophobic molecule (H) co-delivering a TLR-7/8a adjuvant, 2BXy3. Mice were immunized at days 0 and 14 and antigen-specific CD8 T cell responses (% IFNg+ of total CD8 T cells) were assessed from whole blood at days 0 and 25. Open circles indicate that the peptide antigen (A) was soluble (i.e. non-particulate), whereas closed circles indicate that the mice received a particulate immunogenic composition of the peptide antigen (A).\nMice (N=5 per group) were immunized with different immunogenic compositions comprising peptide antigens (A) based on either the synthetic long peptide (LP) or minimal CD8 T cell epitope (Min) of the antigen Cpne1 derived from the MC38 tumor cell line either as the peptide antigen (A) alone admixed with the TLR-7/8a adjuvant; as the peptide antigen (A) linked to a hydrophobic molecule (H), W3, and admixed with the TLR-7/8a adjuvant; or as the peptide antigen (A) linked to a hydrophobic molecule (H) co-delivering a TLR-7/8a adjuvant, 2BXy3. Mice were immunized at days 0 and 14 and antigen-specific CD8 T cell responses (% IFNg+ of total CD8 T cells) were assessed from whole blood at days 0 and 25. […]\nMice (N=5 per group) were immunized with immunogenic compositions comprising 4 unique peptide antigen conjugates delivering a distinct MC38 tumor derived minimal CD8 T cell epitopes (40 total epitopes) that were linked to either 2BXy5 or 2B5 hydrophobic molecules (H). Mice were immunized at days 0 and 14 and antigen-specific CD8 T cell responses (% IFNg+ of total CD8 T cells) were assessed from whole blood at day 24."}, "[3]": {"experiment": "hydrodynamic behavior: water solubility, particle size by dynamic light scattering and turbidity in PBS pH 7.4", "format": "physicochemical", "conditions": "aqueous buffer at pH about 7.4", "from_the_text": "FIG. 4: Molecular weight and hydrodynamic behavior of peptide antigens (A) and peptide antigen conjugates delivering peptide antigens (A) comprised of either synthetic long peptides (SLP or “LP”) or minimal (“Min”) CD8 T cell epitopes derived from the MC38 tumor cell line. […] FIG. 4 discloses SEQ ID NOS 190-199, 623 and 200, respectively, in order of appearance. FIG. 18: Impact of peptide antigen conjugate net charge and hydrophobic molecule composition on hydrodynamic behavior. The hydrodynamic behavior of a range of different peptide antigen conjugates of Formula V at 0.1 mg/mL or 0.5 mg/mL in PBS at a pH of 7.4 was assessed by dynamic light scattering. […] Turbidity was determined by measuring the absorbance of the solution at 490 nm. […] (A) The impact of net charge on the hydrodynamic behavior of a range of different peptide antigen conjugates of Formula V suspended at 0.1 mg/mL or 0.5 mg/mL in PBS at a pH of 7.4 was assessed by dynamic light scattering. […] The hydrodynamic behavior of a range of different peptide antigen conjugates suspended at 0.1 mg/mL in PBS at a pH of 7.4 was assessed by dynamic light scattering. […] Particle size was assessed by dynamic light scattering with the peptide antigen conjugate suspended at 0.5 mg/mL in PBS at a pH of 7.4. […] Solubility can be determined by visual inspection, by turbidity measurements or by dynamic light scattering."}}, "note": "“Also recorded” adds a separate entry of the source. *1 amine or outer side, *2 acyl side, *3 side chain or, on linkers, in order; H or OH if unused. Where a SMILES comes first, the peptide text is derived from it. Where no end group is shown, it is not given here. Side-chain parts run from the residue outwards. The star is where a group is joined. 2B = 1-(4-aminobutyl)-2-butyl-1H-imidazo[4,5-c]quinolin-4-amine, CCCCc1nc2c(N)nc3ccccc3c2n1CCCCN*; X2 = CCCCNc1nc(N)c2nc(O)n(Cc3ccc(C(=O)NCC(=O)NCCCn4nnc5c4-c4ccccc4N(*)Cc4ccccc4-5)cc3)c2n1; X1 = C1=C\\c2ccccc2N(*)Cc2ccccc2/1; Suc = O=C(CCC(=O)[*:2])[*:1]"}
{"molecule": "CCCCNc1nc(N)c2nc(O)n(Cc3ccc(C(=O)NCC(=O)NCCCn4nnc5c4-c4ccccc4N(C(=O)CCC(=O)NCCCCC(NC(=O)CNC(=O)CCC(=O)N4Cc6ccccc6/C=C\\c6ccccc64)C(=O)NCC(=O)NC(Cc4c[nH]c6ccccc46)C(=O)NC(Cc4c[nH]c6ccccc46)C(=O)NC(Cc4c[nH]c6ccccc46)C(=O)NC(Cc4c[nH]c6ccccc46)C(=O)NC(Cc4c[nH]c6ccccc46)C(N)=O)Cc4ccccc4-5)cc3)c2n1", "note": "(centres unmarked) [Compound 30] ({X1-Suc}-GK([Suc-X2])GWWWWW-NH2; configuration not given here)", "values": [{"measurement": "T cell responses in vivo (in words)", "setting": "[1]", "result": "highest magnitude responses"}]}
{"molecule": "CCCCc1nc2c(N)nc3ccccc3c2n1CCCCNC(=O)CCC(NC(=O)C(Cc1c[nH]c2ccccc12)NC(=O)C(CCC(=O)NCCCCn1c(CCCC)nc2c(N)nc3ccccc3c21)NC(=O)C(Cc1c[nH]c2ccccc12)NC(=O)C(CCC(=O)NCCCCn1c(CCCC)nc2c(N)nc3ccccc3c21)NC(=O)CCC(=O)N1Cc2ccccc2-c2c(nnn2CCCCC(=O)NC(CCCCN)C(=O)NC(CCCCN)C(=O)NC(CCCCN)C(=O)NC(CCCCN)C(=O)NC(CCCCN)C(=O)NC(CCCCN)C(=O)NC(CCCCN)C(=O)NC(CCCCN)C(=O)NC(CCCCN)C(=O)NC(CCCCN)C(N)=O)-c2ccccc21)C(N)=O", "note": "(centres unmarked) [Compound 42]", "values": [{"measurement": "T cell responses in vivo (in words)", "setting": "[1]", "result": "high magnitude T cell immunity"}]}
{"molecule": "Adpgk: native LP neoantigen from MC38 that assembles into particles; minimal epitope Ala-Ser-Met-Thr-Asn-Met-Glu-Leu-Met (ASMTNMELM)", "values": [{"measurement": "CD8 T cell responses (in words)", "setting": "[2]", "result": "significant increase in CD8 T cell responses over background; also recorded: immunogenic"}]}
{"molecule": "Compound 16 (GGE(2B)GGE(2B)GGE(2B)GGE(2B)GGE(2B); also: DBCO)", "values": [{"measurement": "T cell responses in vivo (in words)", "setting": "[1]", "result": "high magnitude T cell responses"}, {"measurement": "particle formation and stability (in words)", "setting": "[3]", "result": "formed stable nanoparticle micelles"}]}
{"molecule": "Compound 20 (KGWGWGKGWGWGKGWGWGKGWGWGKGWGWG; not fully specified (residues 1, 7, 13, 19, 25))", "values": [{"measurement": "T cell responses in vivo (in words)", "setting": "[1]", "result": "high magnitude T cell responses"}, {"measurement": "particle formation and stability (in words)", "setting": "[3]", "result": "formed stable nanoparticle micelles"}]}
{"molecule": "Cpne1: native LP neoantigen derived from the MC38 tumor cell line, water soluble; minimal epitope Ser-Ser-Pro-Tyr-Ser-Leu-His-Tyr-Leu (SSPYSLHYL)", "values": [{"measurement": "CD8 T cell responses (in words)", "setting": "[2]", "result": "no CD8 T cell responses"}]}
